Test results: PMC12156367, “Synthesis and Biological Evaluation of Seco-Coumarin/Furoxan Hybrids as Potent Anti-Tumor Agents to Overcome Multidrug Resistance via Multiple Mechanisms” (Molecules, 2025)
pIC50: −log10 of the molar value.

Assays:
[1] = Solubility experiment (HPLC) in water/acetonitrile; type: physicochemical; conditions: in water/acetonitrile (table title)
Experimental: Wavelength: 254 nm; flow rate: 1.0 mL/min; column temperature: 25 °C. Mobile phase: Phase A: water, Phase B: acetonitrile (Table 5).
Compounds were dissolved in chromatographic-grade acetonitrile and diluted to concentrations of 200, 100, 50, 25, 12.5, and 6.25 µg/mL. A standard curve was plotted using the peak area under the curve (AUC) versus concentration. […] The supernatant was filtered through an ultrafiltration membrane and then subjected to HPLC analysis. The solubility of the target compound was determined by substituting the AUC of the test compound into the standard curve. Each measurement was performed in triplicate.

[2] = system: P-gp in MCF-7/ADR; test: Rh-123 accumulation assay (flow cytometry); type: cell-based, human; conditions: 9e 20 nM, vs DMSO
Experimental: Harvest the MCF-7/ADR cells and seed them into a 96-well plate (2 × 10^5 cells/well). Following overnight culture, cells were treated with 9e (10 and 20 nM) or DMSO (vehicle control) for 60 min. After aspiration of the medium, cells were washed thrice with PBS and subsequently incubated with Rh123 solution (1 μg/mL; Sigma-Aldrich) for 60 min. Subsequently, wash three times with PBS, then digest and centrifuge them (1000× g, 5 min). Resuspend the cells with 1 mL of PBS and centrifuge again (1000× g, 5 min). Finally, after resuspending the cells with 200 μL of PBS, the fluorescence of Rh123 was analyzed by flow cytometry (Beckman, Brea, CA, USA).

[3] = system: MCF-7/ADR; test: Antiproliferative activity of 9e after pre-treatment with inhibitors (MTT); type: cell-based, human
Experimental: (§1) Following harvest during logarithmic growth, cells were plated in 96-well culture plates at an initial density of 5000 cells per well. Incubate the plate overnight at 37 °C to allow the cells to adhere. Following the overnight incubation, introduce the compound at the predetermined concentration into each well, and then return the plate to the incubator for an additional 48 h culture period. After the 48 h treatment, carefully aspirate the drug-containing medium from each well. Subsequently, add 150 μL of 0.5 mg/mL MTT (Beyotime, China) solution to each well. Protect the plate from light and incubate it at 37 °C for 4 h to allow the formation of formazan crystals. Finally, add 150 μL of DMSO (Sinopharm, China) to each well and gently mix to ensure complete dissolution of the formazan crystals. The OD value at 570nm was measured using a microplate reader (Thermo Fisher, Waltham, MA, USA). Cell proliferation inhibition was determined using the following formula:Inhibition (%) = [(ODDMSO − ODcompd.)/(ODDMSO − ODblank)] × 100
Carboxy-PTIO (NO scavenger), NAC (N-acetylcysteine), tariquidar (P-glycoprotein inhibitor), and Fer-1 (ferrostatin-1, ferroptosis inhibitor) were purchased from Beyotime. MCF-7/ADR (5000 cells/well) were plated in 96-well plates and cultured overnight. Then, the cells were pre-treated with specified concentrations of inhibitors for 1 h and incubated with 9e (10 or 20 nM) or DMSO (24 h, 37 °C). Experimental procedures were the same as the method for the in vitro antiproliferative assay.

[4] = system: MCF-7 (human breast cancer cell line); test: In vitro antiproliferative assay (MTT, 48 h), MCF-7; type: cell-based; conditions: MCF7, mean of three determinations
Excerpt: The MDA-MB-468 cell line was procured from the Cell Bank of the Chinese Academy of Sciences. The MCF-7, MCF-7/ADR, MCF-10A, and MDA-MB-231 cell lines were kindly provided by Professor Xianyi Sha (Fudan University, Shanghai, China). The HUVEC cells were kindly provided by Associate Professor Hulie Zeng (Fudan University, Shanghai, China). The MDA-MB-468, MDA-MB-231, MCF-7, MCF-10A, and HUVEC cells were cultivated in DMEM (Service Biotechnology, China) supplemented with 10% FBS (Capricorn Scientific, Germany) and 1% penicillin-streptomycin (Meilunbio, Dalian, China). For the MCF-7/ADR cells, they were cultured in RPMI-1640 (Service Biotechnology, Wuhan, China), containing 10% FBS and 1% penicillin-streptomycin. […]
Following harvest during logarithmic growth, cells were plated in 96-well culture plates at an initial density of 5000 cells per well. […] The OD value at 570nm was measured using a microplate reader (Thermo Fisher, Waltham, MA, USA). Cell proliferation inhibition was determined using the following formula:Inhibition (%) = [(ODDMSO − ODcompd.)/(ODDMSO − ODblank)] × 100
GraphPad Prism software 9 was used to calculate the IC50 values. […] For instance, in the cell experiment, we recorded the cell viability values at different drug concentrations. […]

[5] = system: MCF-7/ADR (doxorubicin-resistant human breast cancer cell line); test: In vitro antiproliferative assay (MTT, 48 h), MCF-7/ADR; type: cell-based
Excerpt: The MDA-MB-468 cell line was procured from the Cell Bank of the Chinese Academy of Sciences. The MCF-7, MCF-7/ADR, MCF-10A, and MDA-MB-231 cell lines were kindly provided by Professor Xianyi Sha (Fudan University, Shanghai, China). The HUVEC cells were kindly provided by Associate Professor Hulie Zeng (Fudan University, Shanghai, China). The MDA-MB-468, MDA-MB-231, MCF-7, MCF-10A, and HUVEC cells were cultivated in DMEM (Service Biotechnology, China) supplemented with 10% FBS (Capricorn Scientific, Germany) and 1% penicillin-streptomycin (Meilunbio, Dalian, China). For the MCF-7/ADR cells, they were cultured in RPMI-1640 (Service Biotechnology, Wuhan, China), containing 10% FBS and 1% penicillin-streptomycin. Additionally, 500 ng/mL of doxorubicin (Sigma-Aldrich, Saint Louis, MO, USA) was incorporated into the RPMI-1640 culture medium to keep drug resistance. All cell lines were cultured in a humidified incubator at 37 °C with a 5% CO2 atmosphere.
as §1
GraphPad Prism software 9 was used to calculate the IC50 values. The specific calculation process is as follows: Firstly, we input the experimental data into Prism. The data include the concentrations of the experimental compounds and the corresponding biological response values. For instance, in the cell experiment, we recorded the cell viability values at different drug concentrations. Subsequently, we select the option of “Dose–Response–Nonlinear Regression” in the “Analyze” menu for curve fitting. Generally speaking, we use the model of “[Inhibitor] vs. normalized response—Variable slope”. The Prism software fits the data through the nonlinear least squares method and finds the parameter values that can minimize the difference between the model’s predicted values and the actual data. After completing the curve fitting, the software will directly provide the estimated values and confidence intervals of the IC50 value and other relevant parameters. Meanwhile, it will also offer goodness-of-fit indices, such as the correlation coefficient, to evaluate the quality of the fitting. Through the above method, we can accurately calculate the IC50 value, thereby assessing the intensity of the inhibitory or activating effect of the compound on the biological system.

## COc1ccc(CCC(=O)c2ccc(OCCOc3no[n+]([O-])c3S(=O)(=O)c3ccccc3)cc2OC)cc1 [Compound 9e, 4-(2-(3-methoxy-4-(3-(4-methoxyphenyl)propanoyl)phenoxy)ethoxy)-3-(phenylsulfonyl)-1,2,5-oxadiazole 2-oxide]
[1]
  Solubility: 56.4 ± 5.5%
[2]
  Rh-123 accumulation (in words): accumulated significantly
[3]; 10 nM 9e + 1250 μM NAC
  inhibitory activity after NAC pretreatment: completely lost its inhibitory activity
[3]; 20 nM 9e + 100 μM Carboxy-PTIO
  cell survival rate with NO scavenger Carboxy-PTIO: 53.7%
[3]; 9e + 5 μM tariquidar
  cells still inhibited with P-gp inhibitor tariquidar: 62%
[3]; Homo sapiens, NCI/ADR-RES, 9e 20 nM alone, read-out: proliferation inhibition rate
  inhibition at 0.02 µM: 89%
[4]
  pIC50: 5.37
[5]; Homo sapiens, NCI/ADR-RES, MTT, 48 h, mean of three determinations
  pIC50: 8.52
[5]; collateral sensitivity
  Selectivity Ratio IC50(MCF-7)/ IC50(MCF-7/ADR): 1402.0
